Source: PubChem BioAssay (NCI)
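48-hour exposure; five concentrations; linearly interpolated endpoints. Abbreviation: GI50, concentration required for 50% inhibition of growth. TGI: concentration producing complete growth inhibition.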

Columns and labels:
Assay in all cases: NCI anticancer screen, dose series, 48 h
HCC-2998 colon = tested on: HCC-2998 colon
HOP-62 NSCLC = tested on: HOP-62 NSCLC
HS 578T breast = tested on: HS 578T breast
MDA-MB-435 = tested on: MDA-MB-435
MOLT-4 leukemia = tested on: MOLT-4 leukemia
NCI-H460 lung = tested on: NCI-H460 lung
NCI/ADR-RES ovarian = tested on: NCI/ADR-RES ovarian
OVCAR-8 ovarian = tested on: OVCAR-8 ovarian
SF-295 CNS = tested on: SF-295 CNS
SK-MEL-2 melanoma = tested on: SK-MEL-2 melanoma

| Structure (SMILES) | GI50 (HCC-2998 colon) | TGI (HCC-2998 colon) | GI50 (HOP-62 NSCLC) | TGI (HOP-62 NSCLC) | GI50 (HS 578T breast) | TGI (HS 578T breast) | GI50 (MDA-MB-435) | TGI (MDA-MB-435) | GI50 (MOLT-4 leukemia) | TGI (MOLT-4 leukemia) | GI50 (NCI-H460 lung) | TGI (NCI-H460 lung) | GI50 (NCI/ADR-RES ovarian) | TGI (NCI/ADR-RES ovarian) | GI50 (OVCAR-8 ovarian) | TGI (OVCAR-8 ovarian) | GI50 (SF-295 CNS) | TGI (SF-295 CNS) | GI50 (SK-MEL-2 melanoma) | TGI (SK-MEL-2 melanoma) |
| --- | --- | --- | --- | --- | --- | --- | --- | --- | --- | --- | --- | --- | --- | --- | --- | --- | --- | --- | --- | --- |
| CC[n+]1oc(C(=O)c2ccc(Cl)cc2)c(-c2ccccc2)c1-c1ccccc1.[Cl][Fe]([Cl])([Cl])[Cl] | 60.8 µM | > 100 µM | 29.7 µM | > 100 µM | 34.5 µM | > 100 µM | 22.3 µM | 80.5 µM | 47.2 µM | > 100 µM | 43.2 µM | > 100 µM | > 100 µM | > 100 µM | 45.5 µM | > 100 µM | 53.1 µM | > 100 µM | 30.8 µM | 85.9 µM |
| Cc1[nH]nc(C(F)(F)F)c1N=NN(C)C |  | 31.5 µM |  | 27 µM |  | 44.6 µM |  | 32.7 µM |  | 5.02 µM |  | 26.6 µM |  | 23 µM |  | 24.6 µM |  | 25.7 µM |  | 35.5 µM |
| COc1ccc(NC(=O)CSC2=C(Nc3cccc(Br)c3)C(=O)N(Cc3ccccc3)C2=O)cc1Cl |  |  | > 100 µM | > 100 µM | 35.4 µM | > 100 µM | > 100 µM | > 100 µM | 1.73 µM | > 100 µM | 29.9 µM | > 100 µM |  |  | > 100 µM | > 100 µM | > 100 µM | > 100 µM | > 100 µM | > 100 µM |
| O=[N+]([O-])c1cc(Cl)c2[nH]c3c(Cl)cc([N+](=O)[O-])cc3c2c1 | 0.331 µM | > 100 µM | 0.971 µM | > 38.4 µM | 0.609 µM | > 100 µM | 0.31 µM |  | 0.329 µM | > 100 µM | 0.311 µM | > 100 µM | 0.345 µM |  | 0.253 µM | 1.23 µM | 0.229 µM | 1.99 µM | 0.347 µM | 2.19 µM |
| COc1ccc2c(=O)cc(-c3ccccc3)[nH]c2c1 | 1.27 µM | 8.9 µM | 9.74 µM | > 100 µM | 0.758 µM | > 100 µM | 0.18 µM | 0.523 µM | 1.25 µM | > 100 µM | 0.397 µM | > 42 µM | 0.547 µM | 6.15 µM | 2.64 µM | > 46.6 µM | 0.33 µM | 1.84 µM |  | > 100 µM |
| CCc1ccc(NC(=O)NC(=O)c2ccccc2[N+](=O)[O-])cc1Oc1ncc(Cl)cn1 |  | 0.0695 µM |  | 75.3 µM |  |  |  | 0.0332 µM |  | > 100 µM |  | 0.0508 µM |  |  |  | > 100 µM |  |  |  |  |
| COc1cc(OC)c(C(=O)/C=C/c2cc3c(cc2OCc2ccccc2)OC(C)(C)CC3)cc1CC=C(C)C | 8.91 µM | > 25 µM | 6.78 µM | 13.5 µM | 3.05 µM | 16.7 µM | 4.54 µM | 18.2 µM | 7.03 µM | > 25 µM | 4.38 µM | 11.8 µM | 6.89 µM | > 25 µM | 4.14 µM | > 25 µM | 4.56 µM | 15.8 µM | 6.84 µM | > 25 µM |
